25 molecules from ChEMBL document CHEMBL1145133, “Thienyl and phenyl alpha-halomethyl ketones: new inhibitors of glycogen synthase kinase (GSK-3beta) from a library of compound searching” (J Med Chem, 2003) can be followed below.

Each structure is given as a SMILES string. pIC50: −log10 of the molar value.

For test [1], the target named is Glycogen synthase kinase-3 beta (Homo sapiens, UniProt P49841). Nature of the test: Inhibitory activity against glycogen synthase kinase-3 (GSK-3beta).
For test [2], the target named is T1, cAMP-dependent protein kinase (PKA) (Homo sapiens, UniProt P22694+P17612+P22612). The experiment in a line: Inhibitory activity against protein kinase A (PKA ). The format is protein assay.
For test [3], the target named is T1, cAMP-dependent protein kinase (PKA). The experiment in a line: Inhibition of protein kinase A (PKA). The format is protein assay.

Sequence of Glycogen synthase kinase-3 beta (P49841 whole entry): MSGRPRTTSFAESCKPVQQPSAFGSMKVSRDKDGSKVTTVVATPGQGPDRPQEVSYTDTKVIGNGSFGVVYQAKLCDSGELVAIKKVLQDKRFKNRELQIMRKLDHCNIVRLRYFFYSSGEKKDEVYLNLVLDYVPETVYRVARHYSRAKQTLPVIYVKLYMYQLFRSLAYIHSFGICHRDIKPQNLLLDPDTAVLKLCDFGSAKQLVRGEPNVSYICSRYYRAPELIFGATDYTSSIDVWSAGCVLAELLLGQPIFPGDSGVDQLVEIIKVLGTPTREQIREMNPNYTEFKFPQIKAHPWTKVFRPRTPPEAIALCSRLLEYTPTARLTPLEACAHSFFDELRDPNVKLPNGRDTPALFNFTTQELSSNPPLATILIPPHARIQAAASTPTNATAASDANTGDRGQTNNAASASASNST

Turning to `O=C(CBr)c1ccc(Br)cc1`, the pIC50 in test [1] was 6.30. This molecule also came in with an IC50 in test [2] of more than 100 µM.
Taken in the same sequence, the figures for `O=C(CCl)c1ccc(Cl)s1` were 5.00 and more than 100 µM.
With `Cc1csc(C(=O)CCl)c1`, the pIC50 in test [1] was less than 4.00.
As to `CC(=O)c1ccc(C(=O)CCl)s1`, in test [1], the pIC50 was 4.30.
As for `O=C(CCl)c1c(Br)sc(Cl)c1Cl`, the IC50 in test [3] is more than 100 µM. The pIC50 in test [1] is 5.70.
As to `O=C(CCl)c1ccc(Cl)cc1`, the pIC50 in test [1] was 5.60. In addition, in test [2], the IC50 was more than 100 µM.
For `O=C(CCl)c1cc(Br)c(Br)s1`, in test [1], the pIC50 was 6.00. For the same molecule, in test [2], the IC50 is more than 100 µM.
Molecule `Cc1ccc(C(=O)CCl)s1` showed a pIC50 in test [1] of less than 4.00.
As for `O=C(CCl)c1csc(C(=O)CCl)c1`, the pIC50 in test [1] was 5.82. In test [2], this molecule yielded an IC50 of more than 100 µM.
The like results for `O=C(CCl)c1cscc1Cl` were, in that order, 4.60 and more than 100 µM.
Turning to `O=C(CCl)c1cc(Cl)c(Cl)s1`, the pIC50 in test [1] was 5.60.
On the same count and under the same terms, for `O=C(CCl)c1cc(Br)cs1` the value was 5.52.
For `O=C(CCl)c1cc(Cl)sc1Cl`, in test [1], the pIC50 was 5.30. The IC50 in test [2] is more than 100 µM.
In the case of `Cc1c(C(=O)CCl)csc1C(=O)CCl`, the pIC50 in test [1] is 5.30. Also, the IC50 in test [2] was more than 100 µM.
On to `Cc1ccsc1C(=O)CCl`, for which the pIC50 in test [1] is 4.12.
For the molecule `O=C(CBr)c1ccccc1`, the pIC50 in test [1] is 5.30. The same molecule came in with an IC50 in test [2] of more than 100 µM.
`O=C(CCl)c1ccccc1` [PHENACYL CHLORIDE]: in test [1], the pIC50 is 4.30.
The same measure, in the same setting: the same measure for `O=C(CCl)c1cccs1`: 4.30.
Turning to `CC(=O)c1csc(C(=O)CCl)c1`, in test [1], the pIC50 was 5.10. Moreover, the IC50 in test [2] was more than 100 µM.
Consider `O=C(CCl)c1ccc(Br)s1`, for which, in test [1], the negative-log IC50 (pIC50) was 5.00. The molecule further displayed an IC50 in test [2] of more than 100 µM.
As for `O=C(CCl)c1c(Br)sc(Br)c1Br`, the negative-log IC50 (pIC50) in test [1] was 6.00.
In test [1], `Cc1cc(C(=O)CCl)c(C)s1` had a pIC50 of less than 4.00.
For the molecule `O=C(CBr)c1ccc(-c2ccccc2)cc1`, the pIC50 in test [1] is 5.60. Also, the concentration for half-maximal inhibition (IC50) in test [2] was more than 100 µM.
Molecule `Cc1sc(C(=O)CCl)cc1C(=O)CCl` gave a pIC50 in test [1] of 5.30.
Consider `O=C(CCl)c1scc(Br)c1Br`, for which the pIC50 in test [1] was 6.30. This molecule registered an IC50 in test [2] of more than 100 µM.

In general, pIC50 refers to −log10 of the IC50, conventionally taken in molar units. Low readings indicate a high IC50, high ones a low IC50. What is called IC50 is the concentration at which inhibition is half-maximal. Lower therefore signals higher potency.
